Test results taken from patent US8859541B2, “6-alkynylpyridines” (Boehringer Ingelheim International GmbH, priority 2012, dated 2014).

Biological target: T1, XIAP BIR3 (Homo sapiens, UniProt P98170)
T1 construct: covering amino acids 241 to 356; XIAP BIR3; made in house; host or cells: E. coli
Test: XIAP BIR3 binding assay (DELFIA), displacement of SMAC peptide
Conditions: GST-fusion BIR3 domain (aa 241 to 356) 10 nM, SMAC peptide 10 nM; activity of the (S)-isomers
Procedure: Biological Methods XIAP BIR3 and cIAP1 BIR3 Binding Assays (DELFIA)
Peptide […]-Lys(Biotin), representing the N-terminus of mature human SMAC (SMAC peptide), was used as interaction partner in the protein-peptide interaction assay.
BIR3 domains (10 nM) were incubated with SMAC peptide (10 nM) in Assay Buffer (50 mM Tris, 120 mM NaCl, 0.1% BSA, 1 mM DTT, 0.05% TritonX100) for one hour at room temperature in the presence of inhibitiory compounds. The assay mixture was transferred to a strepatvidin coated plate and incubated for one hour at room temperature to allow binding of the biotinylated peptide and associated BIR3 domains to the plate. After several washing steps Eu labeled anti-GST antibody (e.g. Perkin Elmer DELFIA Eu-N1-antiGST AD0250) was added to detect BIR3 domain-SMAC peptide interactions according to Perkin Elmer's instructions. […] Time resolved Europium fluoresecence was measured in a Wallac Victor using Standard assay settings.
DELFIA assay results were plotted against compound concentrations and Software GraphPad Prizm was used to calculate half maximal inhibitory concentrations (IC50 values).

T1 sequence (P98170 241-356): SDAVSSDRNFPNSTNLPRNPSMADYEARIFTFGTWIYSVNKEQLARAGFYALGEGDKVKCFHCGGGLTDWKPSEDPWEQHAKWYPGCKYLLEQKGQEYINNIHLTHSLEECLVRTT

Compound | IC50 [nM]
CNC(C)C(=O)Nc1ccc(-c2cncc3ccccc23)c(C#Cc2ccc3occc3c2)n1 (stereo not shown) [Example 16, N-[6-[2-(1-benzofuran-5-yl)-ethynyl]-5-isoquinolin-4-ylpyridin-2-yl]-2-(methyl-amino)propanamide] | 554
CNC(C)C(=O)Nc1ccc(-c2cncnc2)c(C#Cc2ccc3ccncc3c2)n1 (stereo not shown) [Example 18, N-[6-(2-isoquinolin-7-yl-ethynyl)-5-pyrimidin-5-ylpyridin-2-yl]-2-(methyl-amino)propanamide] | 745
CNC(C)C(=O)Nc1ccc(-c2cccc3ccncc23)c(C#Cc2ccc3ncccc3c2)n1 (stereo not shown) [Example 22, N-[5-isoquinolin-8-yl-6-(2-quinolin-6-ylethynyl)pyridin-2-yl]-2-(methylamino)propan-amide] | 1300
CNC(C)C(=O)Nc1ccc(-c2c(C)ccc3ncccc23)c(C#Cc2ccc3ncccc3c2)n1 (stereo not shown) [Example 24, 2-(methylamino)-N-[5-(6-methylquinolin-5-yl)-6-(2-quinolin-6-ylethynyl)pyridin-2-yl]propanamide] | 698
CNC(C)C(=O)Nc1ccc(-c2cncnc2C)c(C#Cc2ccc3cncnc3c2)n1 (stereo not shown) [Example 25, 2-(methylamino)-N-[5-(4-methylpyrimidin-5-yl)-6-(2-quinazolin-7-ylethynyl)-pyridin-2-yl]propanamide] | 653
CNC(C)C(=O)Nc1ccc(-c2c(C)nc3ccccn23)c(C#Cc2ccc(-c3ccncn3)cc2)n1 (stereo not shown) [Example 55, 2-(methylamino)-N-[5-(2-methylimidazo[1,2-a]pyridin-3-yl)-6-[2-(4-pyrimidin-4-ylphenyl)ethynyl]pyridin-2-yl]-propanamide] | 310
CNC(C)C(=O)Nc1ccc(-c2c(C)nc3ccccn23)c(C#Cc2nc3ccccc3s2)n1 (stereo not shown) [Example 67, N-[6-[2-(1,3-benzothiazol-2-yl)-ethynyl]-5-(2-methyl-imidazo[1,2-a]pyridin-3-yl)-pyridin-2-yl]-2-(methylamino)-propanamide] | 270
CNC(C)C(=O)Nc1ccc(-c2c(C)nc(N3CCOCC3)nc2C)c(C#Cc2ccc3cnccc3c2)n1 (stereo not shown) [Example 83, N-[5-(4,6-dimethyl-2-morpholin-4-ylpyrimidin-5-yl)-6-(2-isoquinolin-6-ylethynyl)-pyridin-2-yl]-2-(methylamino)-propanamide] | 446
CNC(C)C(=O)Nc1ccc(-c2c(C)nc3ccccn23)c(C#Cc2ccc(F)c3ncccc23)n1 (stereo not shown) [Example 84, N-[6-[2-(8-fluoroquinolin-5-yl)-ethynyl]-5-(2-methyl-imidazo[1,2-a]pyridin-3-yl)-pyridin-2-yl]-2-(methylamino)-propanamide] | 130
CNC(C)C(=O)Nc1ccc(-c2c(C)nc3ccccn23)c(C#Cc2ccc(OC)c3ncccc23)n1 (stereo not shown) [Example 85, N-[6-[2-(8-methoxyquinolin-5-yl)ethynyl]-5-(2-methyl-imidazo[1,2-a]pyridin-3-yl)-pyridin-2-yl]-2-(methylamino)-propanamide] | 259
CNC(C)C(=O)Nc1ccc(-c2c(C)nc3ccccn23)c(C#Cc2ccc(-c3ccncc3)cc2)n1 (stereo not shown) [Example 91, 2-(methylamino)-N-[5-(2-methylimidazo[1,2-a]pyridin-3-yl)-6-[2-(4-pyridin-4-ylphenyl)-ethynyl]pyridin-2-yl]propan-amide] | 267
CNC(C)C(=O)Nc1ccc(-c2c(C)noc2C)c(C#Cc2ccc3cnccc3c2)n1 (stereo not shown) [Example 97, N-[5-(3,5-dimethyl-1,2-oxazol-4-yl)-6-(2-isoquinolin-6-ylethynyl)pyridin-2-yl]-2-(methylamino)propanamide] | 644
CNC(C)C(=O)Nc1ccc(-c2cnc3ccccc3c2)c(C#Cc2ccc3ccccc3c2)n1 (stereo not shown) [Example 98, 2-(methylamino)-N-[6-(2-naphthalen-2-ylethynyl)-5-quinolin-3-yl-pyridin-2-yl]propanamide] | 526

Further molecules by falling IC50, results first:

IC50 [nM] | Compound
4280 | CNC(C)C(=O)Nc1ccc(-c2cncnc2)c(C#Cc2ccc3oc4ccccc4c3c2)n1 (stereo not shown) [Example 20, N-[6-(2-dibenzofuran-2-yl-ethynyl)-5-pyrimidin-5-ylpyridin-2-yl]-2-(methyl-amino)propanamide]
2880 | CNC(C)C(=O)Nc1ccc(-c2c(Cl)cncc2Cl)c(C#Cc2ccc3ncccc3c2)n1 (stereo not shown) [Example 56, N-[5-(3,5-dichloropyridin-4-yl)-6-(2-quinolin-6-ylethynyl)-pyridin-2-yl]-2-(methylamino)-propanamide]
1190 | CNC(C)C(=O)Nc1ccc(-c2c(C)nc3ccccn23)c(C#Cc2ccc(-c3ccc(OC)cc3)cc2)n1 (stereo not shown) [Example 65, N-[6-[2-[4-(4-methoxyphenyl)-phenyl]ethynyl]-5-(2-methyl-imidazo[1,2-a]pyridin-3-yl)-pyridin-2-yl]-2-(methylamino)-propanamide]
1070 | CNC(C)C(=O)Nc1ccc(-c2c(C)nc(N(C)C)nc2C)c(C#Cc2ccc3ncccc3c2)n1 (stereo not shown) [Example 76, N-[5-[2-(dimethylamino)-4,6-dimethylpyrimidin-5-yl]-6-(2-quinolin-6-ylethynyl)pyridin-2-yl]-2-(methylamino)propan-amide]
918 | CNC(C)C(=O)Nc1ccc(-c2cnc(SC)nc2C#N)c(C#Cc2ccc3cnccc3c2)n1 (stereo not shown) [Example 59, N-[5-(4-cyano-2-methylsulfanylpyrimidin-5-yl)-6-(2-isoquinolin-6-ylethynyl)-pyridin-2-yl]-2-(methylamino)-propanamide]
867 | CNC(C)C(=O)Nc1ccc(-c2cncnc2)c(C#Cc2ccc3ncccc3c2)n1 (stereo not shown) [Example 19, 2-(methylamino)-N-[5-pyrimidin-5-yl-6-(2-quinolin-6-ylethynyl)pyridin-2-yl]-propanamide]
770 | CNC(C)C(=O)Nc1ccc(-c2c(C)nc(N3CCOCC3)nc2C)c(C#Cc2ccc(-c3cccnc3)cc2)n1 (stereo not shown) [Example 86, N-[5-(4,6-dimethyl-2-morpholin-4-ylpyrimidin-5-yl)-6-[2-(4-pyridin-3-ylphenyl)-ethynyl]pyridin-2-yl]-2-(methyl-amino)propanamide]
620 | CNC(=O)c1ccc(C#Cc2nc(NC(=O)C(C)NC)ccc2-c2c(C)nc3ccccn23)cn1 (stereo not shown) [Example 62, N-methyl-5-[2-[6-[[2-(methyl-amino)propanoyl]amino]-3-(2-methylimidazo[1,2-a]pyridin-3-yl)pyridin-2-yl]ethynyl]pyridine-2-carboxamide]
540 | CNC(C)C(=O)Nc1ccc(-c2c(C)ccc3c2cnn3C)c(C#Cc2ccc3ncccc3c2)n1 (stereo not shown) [Example 21, N-[5-(1,5-dimethylindazol-4-yl)-6-(2-quinolin-6-ylethynyl)-pyridin-2-yl]-2-(methyl-amino)propanamide]
453 | CNC(C)C(=O)Nc1ccc(-c2c(C)nc3ccccn23)c(C#Cc2ccc3cc(F)ccc3c2)n1 (stereo not shown) [Example 51, N-[6-[2-(6-fluoronaphthalen-2-yl)ethynyl]-5-(2-methyl-imidazo[1,2-a]pyridin-3-yl)-pyridin-2-yl]-2-(methylamino)-propanamide]
445 | CNC(C)C(=O)Nc1ccc(-c2cnc3ccc(C#N)cn23)c(C#Cc2ccc3cnccc3c2)n1 (stereo not shown) [Example 40, N-[5-(6-cyanoimidazo[1,2-a]-pyridin-3-yl)-6-(2-isoquinolin-6-ylethynyl)pyridin-2-yl]-2-(methylamino)propanamide]
378 | CNC(C)C(=O)Nc1ccc(-c2c(C)nc3ccccn23)c(C#Cc2ccc3nc(OC)ccc3c2)n1 (stereo not shown) [Example 73, N-[6-[2-(2-methoxyquinolin-6-yl)ethynyl]-5-(2-methyl-imidazo[1,2-a]pyridin-3-yl)-pyridin-2-yl]-2-(methylamino)-propanamide]
310 | CNC(C)C(=O)Nc1ccc(-c2c(C)nc3ccccn23)c(C#Cc2ccc3c(Cl)nccc3c2)n1 (stereo not shown) [Example 43, N-[6-[2-(1-chloroisoquinolin-6-yl)ethynyl]-5-(2-methyl-imidazo[1,2-a]pyridin-3-yl)-pyridin-2-yl]-2-(methylamino)-propanamide]
265 | CNC(C)C(=O)Nc1ccc(-c2cncnc2)c(C#Cc2ccc3ccccc3c2)n1 (stereo not shown) [Example 23, 2-(methylamino)-N-[6-(2-naphthalen-2-ylethynyl)-5-pyrimidin-5-ylpyridin-2-yl]-propanamide]
228 | CNC(C)C(=O)Nc1ccc(-c2c(C)nc3ccccn23)c(C#Cc2ccc3c(=O)n(C)ccc3c2)n1 (stereo not shown) [Example 32, 2-(methylamino)-N-[5-(2-methylimidazo[1,2-a]pyridin-3-yl)-6-[2-(2-methyl-1-oxoisoquinolin-6-yl)ethynyl]-pyridin-2-yl]propanamide]
165 | CNC(C)C(=O)Nc1ccc(-c2c(C)nc3cnccn23)c(C#Cc2ccc3ncccc3c2)n1 (stereo not shown) [Example 68, 2-(methylamino)-N-[5-(2-methylimidazo[1,2-a]pyrazin-3-yl)-6-(2-quinolin-6-ylethynyl)-pyridin-2-yl]propanamide]
142 | CNC(C)C(=O)Nc1ccc(-c2c(C)nc3ccccn23)c(C#Cc2ccc(C#N)c(C)c2)n1 (stereo not shown) [Example 38, N-[6-[2-(4-cyano-3-methyl-phenyl)ethynyl]-5-(2-methyl-imidazo[1,2-a]pyridin-3-yl)-pyridin-2-yl]-2-(methylamino)-propanamide]
122 | CNC(C)C(=O)Nc1ccc(-c2cncnc2)c(C#Cc2cc(F)cc(Cl)c2)n1 (stereo not shown) [Example 17, N-[6-[2-(3-chloro-5-fluorophenyl)ethynyl]-5-pyrimidin-5-ylpyridin-2-yl]-2-(methylamino)propanamide]
